Source: PubChem BioAssay AID1419 (Emory University Molecular Libraries Screening Center, 2008)
Active and inactive are the calls of the source. The rule behind the calls is not given here.

Assay: blockers of an Epstein-Barr virus protein-peptide interaction – biochemical, fluorescence polarization, dose response (AID 1419)
Details: cell-free protein-peptide binding, 2 h; for fold change: measured here: P channel fold over control, at 54 µM

Cc1cc(C)n2c(SC/C(O)=C(\C#N)c3nc4ccccc4[nH]3)nnc2n1
IC50: 20.1 µM
fold change: 1.1

COC(=O)c1c(=O)n(O)c2ccc(OC)cc2[n+]1[O-]
IC50: 4.69 µM
fold change: 2.93

Cc1c2cc(O)c(=O)cc-2oc2cc(O)c(O)cc12
IC50: 1 µM
fold change: 236

CCN(CC)CCN1C(=O)c2cccc3cc(N)cc(c23)C1=O
IC50: 3.39 µM
fold change: 3.91

CCn1c(C)cc(C=C2C(=O)c3ccccc3C2=O)c1C
IC50: 16.2 µM
fold change: 8.23

O=C(Nc1nnc(-c2ccccc2Cl)o1)c1cc2cc([N+](=O)[O-])ccc2s1
IC50: > 54 µM (inactive)
fold change: 1.09

Cc1cccc(N2C(=O)c3cccc4c(N(C)CCO)ccc(c34)C2=O)c1
IC50: < 0.42 µM
fold change: 34.9

COc1ccc(-c2onc3ccc(Br)cc23)cc1
IC50: 0.86 µM
fold change: 7.24

N=C1/C(=C\c2ccc(-c3cccc(C(=O)O)c3)o2)C(=O)N=C2SC=C(c3ccccc3)N12
IC50: 4.25 µM
fold change: 1.23

Cc1cccc(NC(=O)CSc2nnnn2C)n1
IC50: > 54 µM (inactive)
fold change: 1.02

COc1ccccc1N1C(=O)C2C(C(=O)c3ccccc3)=NN(c3ccc(Br)cc3)C2C1=O (centres undefined)
IC50: > 54 µM (inactive)
fold change: 16.6

Cc1cc([N+](=O)[O-])ccc1-c1ccc(/C=N/NC(=O)Cc2ccccc2)o1
IC50: 6.04 µM
fold change: 10.6

Cc1ccc(N2C(=O)C3C(C2=O)C(C(=O)c2ccc(Cl)cc2)N2CCCC32)cc1 (centres undefined)
IC50: > 54 µM (inactive)
fold change: 2.44

CSc1nc(N(CCO)CCO)c2sc3nc(-c4ccco4)c4c(c3c2n1)CCC4
IC50: > 54 µM (inactive)
fold change: 1.07

CCNc1ccc2noc3c2c1C(=O)c1ccccc1-3
IC50: < 0.42 µM
fold change: 235

CCN(CC)c1ccc(/C=C/C(=O)c2ccc(Br)cc2)cc1
IC50: 2.64 µM
fold change: 31.1

CCOc1ccc(N/C=C/C(=O)c2ccc(OC)cc2)c([N+](=O)[O-])c1
IC50: 4.13 µM
fold change: 2.81

O=C1NC(=O)N(Cc2ccco2)C(=O)/C1=C/c1ccc(-c2cccc([N+](=O)[O-])c2)o1
IC50: 16.5 µM
fold change: 2.15

Cc1ccc(C2C(C(=O)c3ccco3)=C(O)C(=O)N2c2nnc(C)s2)cc1 (centres undefined)
IC50: > 54 µM (inactive)
fold change: 1.75

Fc1ccccc1/C=N/Nc1ncnc2nc[nH]c12
IC50: > 54 µM (inactive)
fold change: 1.17

CC1=NOC(=O)/C1=C\c1ccc(-c2cc(Cl)ccc2Cl)o1
IC50: 1.49 µM
fold change: 4.14

Cc1cc[n+](-c2[nH]c(=O)sc2/C=N/NC([S-])=Nc2ccccc2)cc1
IC50: > 54 µM (inactive)
fold change: 1.42

O=[N+]([O-])c1ccc(Sc2cccc3cccnc23)c2cccnc12
IC50: 29.5 µM
fold change: 2.58

Nc1c(S(=O)(=O)c2ccccc2)c2nc3ccccc3nc2n1Cc1ccco1
IC50: > 54 µM (inactive)
fold change: 1.32

COC(=O)C1C=C2c3cccc4[nH]cc(c34)CC2N(C)C1 (centres undefined)
IC50: 1.66 µM
fold change: 6.81

N#CC1=C(N)N2C(=C(C#N)C1c1ccccc1)Sc1ccccc12 (centres undefined)
IC50: > 54 µM (inactive)
fold change: 2.54

COc1ccc(N=Nc2nc3cc(Br)c(Br)cc3n2C)c(OC)c1
IC50: 2.95 µM
fold change: 5.37

Cc1cc(C)cc(-n2c(O)c(C=Nc3ccc(N4CCOCC4)cc3)c(=O)[nH]c2=S)c1
IC50: > 54 µM (inactive)
fold change: 2.23

O=[N+]([O-])c1ccc(-c2cn(-c3ccc(Cl)cc3)c(=S)[nH]2)cc1
IC50: > 54 µM (inactive)
fold change: 0.93

COCCN=c1scc(-c2ccco2)n1/N=C/c1ccc(O)c(O)c1O
IC50: 12 µM
fold change: 1.04

CCCOc1cc(N(CC)CC)ccc1/C=C(/C#N)c1nc2ccc(C)cc2[nH]1
IC50: 11.8 µM
fold change: 12.9

Cn1cc(/C=C2\SC(=S)N(NC(=O)c3ccccc3)C2=O)c2ccccc21
IC50: > 54 µM (inactive)
fold change: 5.3
